Laboratory results taken from the NIST ThermoML archive (doi:10.1021/je200068x).
± gives the expanded uncertainty stated by the source.

Details: for surface tension liquid-gas: Drop weight; for mass density: 101.33 kPa, Liquid

Row | Structure (SMILES) | surface tension liquid-gas (293.15 K) | mass density (293.15 K) | surface tension liquid-gas (298.15 K) | mass density (298.15 K) | surface tension liquid-gas (303.15 K) | mass density (303.15 K) | surface tension liquid-gas (308.15 K) | mass density (308.15 K) | surface tension liquid-gas (313.15 K) | mass density (313.15 K) | surface tension liquid-gas (318.15 K) | mass density (318.15 K) | surface tension liquid-gas (323.15 K) | mass density (323.15 K) | surface tension liquid-gas (328.15 K) | mass density (328.15 K) | surface tension liquid-gas (333.15 K) | mass density (333.15 K) | surface tension liquid-gas (338.15 K) | mass density (338.15 K) | also measured
1 | C[n+]1ccn(CCCN)c1.F[B-](F)(F)F [1-(3-aminopropyl)-3-methyl-1H-imidazolium tetrafluoroborate] | 47.2 ± 0.5 mN/m | 1358.01 ± 1.8 kg/m3 | 47.1 ± 0.5 mN/m | 1354.6 ± 1.7 kg/m3 | 46.4 ± 0.5 mN/m | 1349.29 ± 1.7 kg/m3 | 46.2 ± 0.5 mN/m | 1345.68 ± 1.7 kg/m3 | 46.1 ± 0.5 mN/m | 1343.18 ± 1.7 kg/m3 | 45.4 ± 0.5 mN/m | 1336.97 ± 1.7 kg/m3 | 45.2 ± 0.5 mN/m | 1333.57 ± 1.7 kg/m3 | 44.8 ± 0.5 mN/m | 1328.96 ± 1.6 kg/m3 | 44.6 ± 0.5 mN/m | 1325.35 ± 1.6 kg/m3 | 44.1 ± 0.5 mN/m | 1321.05 ± 1.6 kg/m3 | surface tension liquid-gas (343.15 K): 43.8 ± 0.5 mN/m; mass density (343.15 K): 1317.25 ± 1.6 kg/m3; surface tension liquid-gas (348.15 K): 43.4 ± 0.5 mN/m; mass density (348.15 K): 1313.04 ± 1.6 kg/m3; surface tension liquid-gas (353.15 K): 43.1 ± 0.5 mN/m; mass density (353.15 K): 1309.44 ± 1.6 kg/m3
2 | Cn1cc[n+](CCN)c1.F[B-](F)(F)F [3-(2-aminoethyl)-1-methyl-1H-imidazolium tetrafluoroborate] | 53.8 ± 0.5 mN/m | 1427.12 ± 2 kg/m3 | 53.5 ± 0.5 mN/m | 1422.31 ± 2 kg/m3 | 53.2 ± 0.5 mN/m | 1418.96 ± 2 kg/m3 | 52.4 ± 0.5 mN/m | 1413.23 ± 2 kg/m3 | 52 ± 0.5 mN/m | 1409.18 ± 1.9 kg/m3 | 51.5 ± 0.5 mN/m | 1404.69 ± 1.9 kg/m3 | 51.3 ± 0.5 mN/m | 1401.78 ± 1.9 kg/m3 | 50.8 ± 0.5 mN/m | 1395.42 ± 1.9 kg/m3 | 50.3 ± 0.5 mN/m | 1391.77 ± 1.9 kg/m3 | 50.2 ± 0.5 mN/m | 1388.54 ± 1.9 kg/m3 | surface tension liquid-gas (343.15 K): 49.8 ± 0.5 mN/m; mass density (343.15 K): 1384.79 ± 1.9 kg/m3; surface tension liquid-gas (348.15 K): 49.4 ± 0.5 mN/m; mass density (348.15 K): 1380.94 ± 1.9 kg/m3; surface tension liquid-gas (353.15 K): 48.8 ± 0.5 mN/m; mass density (353.15 K): 1375.11 ± 1.8 kg/m3
